Patent US20140348958A1, “Anticancer Active Ingredient From Guiera Senegalensis” (UNIVERSITE D'AUVERGNE CLERMONT I, priority 2011, published 2014)
Several values for one entry are separate records, joined by “and”; a condition that tells them apart may be missing. Identical values can stand only once. Like-named read-outs stand apart in the source and are kept apart here.

System: mammary cancer cells MCF-7
Experiment: Proliferation measurement of mammary cancer cells MCF-7 (resazurin, 72 hrs exposure)
Format: cell-based
Details: for IC50: Homo sapiens; for Inhibition percentage: screening, single values and Averages
Method: Detailed Procedure of the Proliferation Measurement of Mammary Cancer Cells MCF-7
1st Part Day 1: Sowing the Cells
1. Preparation of the Medium:
• Preparation of the volume to be put into the plates:
In a 50 mL Falcon, prepare 30 mL of complete RPMI with 10% FCS and 1% Glutamine: 27 mL of RPMI: 3 mL of FCS and 300 μL of Glutamine.
2. Preparation of the Cell Suspension:
• Suck up the medium contained in the flask with the vacuum pump • Rinse with 3 mL of PBS and suck up with the vacuum pump • Add 1 mL of trypsin and let it act for 3 mins in the oven at 37° C. in order to detach the cells. • When the cells are detached, add 2 mL of complete medium prepared previously for inactivating the trypsin. • Mix well the suspension by suction-discharge and transfer into a well-defined Falcon 15. • Count the cells in a Malassez cell: carry out dilution to one 20th for counting them with Trypan blue.
• Sow the plates with 200 μL of cell suspension according to the determined scheme • Put 200 μL of water in the peripheral wells • Leave for incubation for 24 hours.
2nd Part: Day 2, the Extract is Exposed
4. Preparation of the Medium:
A total of 45 mL of medium to be prepared in a Falcon 50 sterilized i.e. 40.5 mL of RPMI+4.5 mL of FCS+450 μL of glutamine
5. Preparation of the Extracts:
• prepare a 10 mg/mL solution: • Dissolve 8.1 mg of crude extract (noted as SF) according to Example 1, of the SF 5 fraction according to Example 2 or of the KP-18^E fraction (Guieranone B) in 810 μL of DMSO • Prepare the mother solution of extract (Ex) at 100 μg/mL i.e. 50 μL of (10 mg/ml) in 4,950 μL of RPMI • Produce the range of extracts (for 1 extract and only 1 range). • Remove the medium in the plates and add 200 μL per well of an extract range (one column per concentration). • Incubate the plates in the oven at 37° C. for 72 hrs.
6. Prepare Resazurin (Developer) and Read the Plate to
2 columns of cells+one column of resazurin alone=3 columns
200 μL/well×3 columns×6 lines=3,600 μL (total volume to be prepared: 5 mL) • Prepare 4.9 mL of medium+100 μL resazurin
Remove the medium and add 200 μL of (medium+resazurin) per well. • Incubate for 2 hours and read with fluorskan. 3rd Part: Measurement of Proliferation at 24 Hours (for t0), 72 Hrs for Extract • For the extract at 72 hrs:
200 μL/well×18 columns×6 lines (total volume to be prepared: 25 mL) • Prepare 24.5 mL of RPMI+500 μL of resazurin • Remove the medium and add 200 μL of (medium+resazurin) per well. • After 2 hours, readout with fluorskan.

[1] = MCF7, MCF-7 mammary cancer cell line, same conditions (Table 2), read-out: Average Cl50 in μM
[2] = MCF7, MCF-7 mammary cancer cell line, same conditions (Table 2), read-out: Average Cl50 in μg/mL
[3] = MCF7, mammary cancer line MCF-7, same conditions (Table 15, identical with Table 2), read-out: Average CI50 in μM
[4] = MCF7, mammary cancer line MCF-7, same conditions (Table 15, identical with Table 2), read-out: Average CI50 in μg/mL

Compound	IC50 [1] [µM]	IC50 [2] [µg/mL]	IC50 [3] [µM]	IC50 [4] [µg/mL]	IC50 (MCF7, 72 h, KP-18E, MCF-7, 72 hrs, average of the 6 tests, read-out: Average C150) [µg/mL]	IC50 (MCF7, 72 h, KP-18E, MCF-7, 72 hrs, each of the 6 tests (1-2, N1-N3), read-out: CI50 (the source's name)) [µg/mL]	Inhibition percentage (KP-18E 1.5 μg/mL, MCF-7, 72 hrs)	Inhibition percentage (KP-18E 1.5 μg/mL, MCF-7, 72 hrs, mean) [%]	Inhibition percentage (KP-18E 2 μg/mL, MCF-7, 72 hrs)	Inhibition percentage (KP-18E 2 μg/mL, MCF-7, 72 hrs, mean) [%]	Inhibition percentage (KP-18E 2.5 μg/mL, MCF-7, 72 hrs)	Inhibition percentage (KP-18E 2.5 μg/mL, MCF-7, 72 hrs, mean) [%]	Inhibition percentage (KP-18E 3 μg/mL, MCF-7, 72 hrs)	Inhibition percentage (KP-18E 3 μg/mL, MCF-7, 72 hrs, mean) [%]	Inhibition percentage (KP-18E 4 μg/mL, MCF-7, 72 hrs)	Inhibition percentage (KP-18E 4 μg/mL, MCF-7, 72 hrs, mean) [%]	Inhibition percentage (KP-18E 5 μg/mL, MCF-7, 72 hrs) [%]	CI50 (KP-18E, MCF-7, 72 hrs, each of the 6 tests (1-2, N1-N3))	antiproliferative activity (in words) (line of mammary cancer cells MCF-7)
O=c1[nH]cc(F)c(=O)[nH]1 [5-FU, 5-Fluorouracil, reference compound]	4.04 ± 0.39	0.53 ± 0.05	4.04 ± 0.39	0.53 ± 0.05	–	–	–	–	–	–	–	–	–	–	–	–	–	–	–
C/C=C/C(=O)C1=CC(OC)=C2C(=O)C(OC)=CC(OC)=C2C1=O [Guieranone B]	7.09	2.24 ± 0.13	7.09	2.24 ± 0.13	2.25	2.05	49.86% and 36.10% and 48.15% and 50.66% and 53.59% and 53.16%	48.59	68.59% and 62.54% and 43.35% and 59.58% and 61.13% and 48.79%	57.33	69.73% and 57.84% and 59.61% and 65.92% and 65.73% and 68.02%	64.48	94.22% and 77.40% and 86.16% and 83.19% and 84.81% and 92.10%	86.31	100.00% and 99.38%	99.90	100.00	2.7202 µg/mL and 2.1664 µg/mL and 2.5518 µg/mL and 2.067 µg/mL and 1.9176 µg/mL	high antiproliferative activity
